Laboratory results from patent publication US8138194B2, “Fused bicyclic pyrimidine compounds as aurora kinase inhibitors” (National Health Research Institutes, priority 2008, dated 2012).
“And” between values parts separate entries of the source, which are not always exact repeats. Identical values can stand only once. Like-named read-outs stand apart in the source and are kept apart here.

What was measured:
HCT-116 cells = test: HCT-116 cell viability MTS assay; format: cell-based; settings: Homo sapiens
Experimental: HCT-116 cell viability was examined by the MTS assay (Promega, Madison, Wis., USA). 2000 HCT-116 cells in 100 μL McCoy's 5a medium were seeded in each well of a 96-well plate. After 96-h incubation with a test compound, the cells were incubated with 20 μL of a MTS/PMS mixture (MTS/PMS ratio: 20: 1) for 2 h at 37° C. in a humidified incubator with 5% CO2 to allow viable cells to convert the tetrazolium salt (MTS) into formazan. The amount/concentration of formazan, which indicates the number of live cells, was determined by measuring the absorbance at 490 nm using a PerkinElmer Victor2 plate reader (PerkinElmer, Shelton, Cont., USA).

[1] = target: T1, GST-tAurora A (123-401aa) fusion protein (Homo sapiens, UniProt O14965); test: Aurora Kinase A luminescent kinase assay; format: biochemical; settings: IC50 (concentration of a test compound at which activity of 50% of Aurora A is inhibited)
T1 construct: GST-tAurora A (123-401aa) fusion protein; made in house; host or cells: Sf9 insect cells (baculovirus, pBacPAK8)
T1 sequence (O14965 123-401): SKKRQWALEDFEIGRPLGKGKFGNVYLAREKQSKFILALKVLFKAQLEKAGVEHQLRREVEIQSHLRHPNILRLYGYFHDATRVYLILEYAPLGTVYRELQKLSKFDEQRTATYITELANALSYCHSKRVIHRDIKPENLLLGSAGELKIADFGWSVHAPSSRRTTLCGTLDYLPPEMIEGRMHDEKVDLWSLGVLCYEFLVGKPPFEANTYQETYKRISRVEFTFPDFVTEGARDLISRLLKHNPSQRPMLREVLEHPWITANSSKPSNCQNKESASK
Experimental: The Aurora A catalytic domain with an N-terminal GST tag was constructed in pBacPAK8 plasmid and expressed in sf9 cells. […] To concentrate GST-tAurora A, buffer was replaced with Tris buffer (100 mM Tris (pH 7.5), 300 mM NaCl, 1 mM EDTA, 4 mM DTT) using Amicon ultra-15 (MWCO:30K, Millipore) to 2.4 mg/ml. After the addition of equal volume of glycerol and 0.04% Triton X-100, the proteins were stored aliquoted at −80° C.
Briefly, a test compound, enzyme, substrate-tetra(LRRWSLG), DTT and ATP were dissolved in Aur buffer (50 mM Tris-HCl pH 7.4, 10 mM NaCl, 10 mM MgCl2, and 100 μg/ml BSA) individually before the assay. […] 5 μM ATP (5 μl), 1 mM DTT (5 μl) and 0.1 mM tetra(LRRWSLG) peptide substrate (5 μl) were added into the reactions of test compounds and GST-tAurora A. The reactions were incubated at 37° C. for 90 min. 50 μl of Kinase-Glo Plus Reagent (V3771, Promega) was added into the reactions, followed by the incubation at 25° C. for 20 min.

[2] = read-out: IC50 (concentration of a test compound which causes 50% of the cell death), HCT-116, 96-h incubation, MTS

| Compound | IC50 [1] | IC50 (HCT-116 cells; [2]) [nM] | IC50 (HCT-116 cells; HCT-116, 96 h, read-out: IC50 (concentration of a test compound which causes 50% of the cell death), HCT-116, 96-h incubation, MTS) [nM] | IC50 (HCT-116 cells; HCT-116, 96 h, read-out: IC50 (concentration of a test compound which causes 50% of the cell death)) [nM] |
| --- | --- | --- | --- | --- |
| O=C(Nc1ccccc1)Nc1ccc(CCNc2ncnc3oc(-c4ccccc4)c(-c4ccccc4)c23)cc1 [Compound 6, 1-(4-(2-(5,6-diphenylfuro[2,3-d]pyrimidin-4-ylamino)ethyl)phenyl)-3-phenylurea] |  | 100 to 900 |  |  |
| O=C(Nc1ccc(CCNc2ncnc3oc(-c4ccccc4)c(-c4ccccc4)c23)cc1)Nc1cccc(F)c1 [Compound 14] | 45 to 400 nM and < 1000 nM | 100 to 900 |  |  |
| COc1ccc(-c2oc3ncnc(NCCc4ccc(NC(=O)Nc5ccccc5)cc4)c3c2-c2ccc(OC)cc2)cc1 [Compound 23] | 45 to 400 nM and < 1000 nM | 100 to 900 |  |  |
| O=C(Nc1ccccc1)Nc1ccc(CCNc2ncnc3oc(-c4ccc(O)cc4)c(-c4ccc(O)cc4)c23)cc1 [Compound 24] | < 1000 nM | 100 to 900 |  |  |
| O=C(Nc1ccc(F)cc1)Nc1ccc(CCNc2ncnc3oc(-c4ccccc4)c(-c4ccccc4)c23)cc1 [Compound 61] | 45 to 400 nM and < 1000 nM | 100 to 900 |  |  |
| O=C(Nc1ccc(CCNc2ncnc3oc(-c4ccccc4)c(-c4ccccc4)c23)cc1)Nc1ccc(F)cc1F [Compound 92] | < 1000 nM | 100 to 900 |  |  |
| O=C(Nc1ccc(Cl)cc1)Nc1ccc(CCNc2ncnc3oc(-c4ccccc4)c(-c4ccccc4)c23)cc1 [Compound 93] | < 1000 nM | 100 to 900 |  |  |
| O=C(Nc1ccc(CCNc2ncnc3oc(-c4ccccc4)c(-c4ccccc4)c23)cc1)Nc1ccccc1F [Compound 96] | 45 to 400 nM and < 1000 nM | 100 to 900 |  |  |
| CN(C)Cc1ccc(NC(=O)Nc2ccc(CCNc3ncnc4oc(-c5ccccc5)c(-c5ccccc5)c34)cc2)cc1 [Compound 115] | < 1000 nM | 100 to 900 |  |  |
| CN(C)Cc1ccccc1NC(=O)Nc1ccc(CCNc2ncnc3oc(-c4ccccc4)c(-c4ccccc4)c23)cc1 [Compound 123] | 45 to 400 nM and < 1000 nM | 100 to 900 |  |  |
| O=C(Nc1ccc(CCNc2ncnc3oc(-c4ccccc4)c(-c4ccccc4)c23)cc1)Nc1cccnc1 [Compound 147] | 45 to 400 nM and < 1000 nM | 100 to 900 |  |  |
| O=C(Nc1ccncc1)Nc1ccc(CCNc2ncnc3oc(-c4ccccc4)c(-c4ccccc4)c23)cc1 [Compound 148] | < 1000 nM | 100 to 900 |  |  |
| O=C(Nc1ccc(CCNc2ncnc3oc(-c4ccccc4)c(-c4ccccc4)c23)cc1)Nc1cnccn1 [Compound 151] | < 1000 nM |  |  |  |
| Cc1cc(NC(=O)Nc2ccc(CCNc3ncnc4oc(-c5ccccc5)c(-c5ccccc5)c34)cc2)no1 [Compound 160] | < 1000 nM |  |  |  |
| Cc1cc(NC(=O)Nc2ccc(CCNc3ncnc4oc(-c5ccccc5)c(-c5ccccc5)c34)cc2)on1 [Compound 161] | < 1000 nM and 45 to 400 nM |  |  |  |
| Cc1csc(NC(=O)Nc2ccc(CCNc3ncnc4oc(-c5ccccc5)c(-c5ccccc5)c34)cc2)n1 [Compound 163] | < 1000 nM and 45 to 400 nM |  |  |  |

| Compound | IC50 [1] | IC50 (HCT-116 cells; [2]) [nM] | IC50 (HCT-116 cells; HCT-116, 96 h, read-out: IC50 (concentration of a test compound which causes 50% of the cell death), HCT-116, 96-h incubation, MTS) [nM] | IC50 (HCT-116 cells; HCT-116, 96 h, read-out: IC50 (concentration of a test compound which causes 50% of the cell death)) [nM] |
| --- | --- | --- | --- | --- |
| O=C(Nc1ccccc1)Nc1ncc(CCNc2ncnc3oc(-c4ccccc4)c(-c4ccccc4)c23)s1 [Compound 171] | 45 to 400 nM and < 1000 nM | 100 to 900 |  |  |
| O=C(Nc1ccccc1)Nc1ccc(CCNc2ncnc3[nH]c(-c4ccccc4)c(-c4ccccc4)c23)cc1 [Compound 172] | 45 to 400 nM and < 1000 nM | 100 to 900 |  |  |
| O=C(Nc1ccc(CCNc2ncnc3oc(-c4ccccc4)c(-c4ccccc4)c23)cc1)Nc1ccccc1Br [Compound 197] | < 1000 nM |  |  |  |
| CN(C)CCNC(=O)Nc1ccc(CCNc2ncnc3oc(-c4ccccc4)c(-c4ccccc4)c23)cc1 [Compound 198] | 45 to 400 nM and < 1000 nM |  |  |  |
| O=C(NCCO)Nc1ccc(CCNc2ncnc3oc(-c4ccccc4)c(-c4ccccc4)c23)cc1 [Compound 199] | 45 to 400 nM and < 1000 nM |  |  |  |
| O=C(Nc1ccc(CCNc2ncnc3oc(-c4ccccc4)c(-c4ccccc4)c23)cc1)NC1CC1 [Compound 201] | < 1000 nM and 45 to 400 nM |  |  |  |
| CN(C)CCOc1ccc(-c2cc3c(NCCc4ccc(NC(=O)Nc5ccccc5)cc4)ncnc3o2)cc1 [Compound 207] |  |  | 100 to 900 |  |
| CN(C)Cc1ccccc1NC(=O)Nc1ccc(CCNc2ncnc3oc(-c4ccccc4)cc23)cc1 [Compound 211] | < 1000 nM and 45 to 400 nM | 100 to 900 |  |  |
| O=C(Nc1ccc(CCNc2ncnc3oc(-c4ccccc4)c(-c4ccccc4)c23)cc1)NC1CCC1 [Compound 214] | 45 to 400 nM and < 1000 nM | 100 to 900 |  |  |
| O=C(NCCCl)Nc1ccc(CCNc2ncnc3oc(-c4ccccc4)cc23)cc1 [Compound 215] | < 1000 nM |  |  | 100 to 900 |
| O=C(NCCCCl)Nc1ccc(CCNc2ncnc3oc(-c4ccccc4)c(-c4ccccc4)c23)cc1 [Compound 227] | < 1000 nM |  |  |  |
| O=C(Nc1ccc(CCNc2ncnc3oc(-c4ccccc4)c(Cl)c23)cc1)c1ccccc1 [Compound 228] | < 1000 nM |  |  |  |
| O=C(Nc1ccc(CCNc2ncnc3oc(-c4ccccc4)cc23)cc1)c1ccccc1 [Compound 229] | < 1000 nM |  |  |  |
| CN(C)CCNC(=O)Nc1ccc(CCNc2ncnc3oc(-c4ccccc4)cc23)cc1 [Compound 233] | < 1000 nM |  |  |  |
| Cc1cc(NC(=O)Nc2ccc(CCNc3ncnc4oc(-c5ccccc5)c(-c5ccccc5)c34)cc2)n[nH]1 [Compound 238] | < 1000 nM |  |  |  |

More lines, main results first:

| IC50 [1] | Compound | IC50 (HCT-116 cells; [2]) [nM] | IC50 (HCT-116 cells; HCT-116, 96 h, read-out: IC50 (concentration of a test compound which causes 50% of the cell death), HCT-116, 96-h incubation, MTS) [nM] | IC50 (HCT-116 cells; HCT-116, 96 h, read-out: IC50 (concentration of a test compound which causes 50% of the cell death)) [nM] |
| --- | --- | --- | --- | --- |
| 45 to 400 nM and < 1000 nM | O=C(Nc1ccccc1)Nc1ccc(CCNc2ncnc3sc4c(c23)CCCC4)cc1 [Compound 42, N-phenyl-N′-4-[2-(5,6,7,8-tetrahydrobenzo[4,5]thieno[2,3-d]pyrimidin-4-ylamino)ethyl]phenylurea] | 100 to 900 |  |  |
| 45 to 400 nM and < 1000 nM | O=C(Nc1ccccc1)Nc1ccc(CCNc2ncnc3oc(-c4ccccc4)c(Br)c23)cc1 [Compound 57] | 100 to 900 |  |  |
| < 1000 nM | CC(=O)Nc1ccc(-c2c(-c3ccccc3)oc3ncnc(NCCc4ccc(NC(=O)Nc5ccccc5)cc4)c23)cc1 [Compound 58] | 100 to 900 |  |  |
| < 1000 nM | O=C(Nc1ccccc1)Nc1ccc(CCNc2ncnc3oc(-c4ccccc4)c(-c4ccc(O)cc4)c23)cc1 [Compound 60] | 100 to 900 |  |  |
| 45 to 400 nM and < 1000 nM | O=C(Nc1ccccc1)Nc1ccc(CCNc2ncnc3oc(-c4ccccc4)cc23)cc1 [Compound 79] | 100 to 900 |  |  |
| 45 to 400 nM and < 1000 nM | CC(=O)Nc1cccc(-c2c(-c3ccccc3)oc3ncnc(NCCc4ccc(NC(=O)Nc5ccccc5)cc4)c23)c1 [Compound 80] | 100 to 900 |  |  |
| < 1000 nM | Cc1cnc(NC(=O)Nc2ccc(CCNc3ncnc4oc(-c5ccccc5)c(-c5ccccc5)c34)cc2)s1 [Compound 164] |  |  |  |
| < 1000 nM | O=C(Nc1ccccc1)Nc1ccc(CCNc2ncnc3oc4c(c23)CCCC4)cc1 [Compound 173] |  |  |  |
| < 1000 nM | O=C(Nc1ccccc1)Nc1ccc(CCNc2ncnc3cc(-c4ccccc4)oc23)cc1 [Compound 176] | 100 to 900 |  |  |
| 45 to 400 nM and < 1000 nM | O=C(Nc1ccccc1)Nc1ccc(CCNc2ncnc3sc4c(c23)CCC4)cc1 [Compound 196] | 100 to 900 |  |  |
| < 1000 nM | CCOC(=O)CNC(=O)Nc1ccc(CCNc2ncnc3oc(-c4ccccc4)c(-c4ccccc4)c23)cc1 [Compound 200] |  |  |  |
| < 1000 nM and 45 to 400 nM | O=C(Nc1ccccc1)Nc1ccc(CCNc2ncnc3oc(-c4ccccc4)c(C#CCO)c23)cc1 [Compound 202] | 100 to 900 |  |  |
| < 1000 nM and 45 to 400 nM | O=C(Nc1ccccc1)Nc1ccc(CCNc2ncnc3occ(-c4ccccc4)c23)cc1 [Compound 203] |  |  |  |
| < 1000 nM and 45 to 400 nM | COc1ccc(-c2cc3c(NCCc4ccc(NC(=O)Nc5ccccc5)cc4)ncnc3o2)cc1 [Compound 204] | 100 to 900 |  |  |
| < 1000 nM and 45 to 400 nM | O=C(Nc1ccccc1)Nc1ccc(CCNc2ncnc3oc(-c4ccc(O)cc4)cc23)cc1 [Compound 205] | < 100 |  |  |
| < 1000 nM and 45 to 400 nM | CCOC(=O)N1CCc2c(sc3ncnc(NCCc4ccc(NC(=O)Nc5ccccc5)cc4)c23)C1 [Compound 208] |  |  |  |
| < 1000 nM | O=C(Nc1ccccc1)Nc1ccc(CCNc2ncnc3oc(Cl)c(-c4ccccc4)c23)cc1 [Compound 213] | 100 to 900 |  |  |
| < 1000 nM | O=C(Nc1ccc(CCNc2ncnc3oc(-c4ccccc4)cc23)cc1)Nc1cccnc1 [Compound 231] |  |  |  |
| < 1000 nM | CN(C)CCNC(=O)Nc1ccc(CCNc2ncnc3oc(-c4ccccc4)c(Cl)c23)cc1 [Compound 234] |  |  |  |
| < 1000 nM and 45 to 400 nM | CC(C)(C)OC(=O)N1CCN(CCCOc2ccc(-c3cc4c(NCCc5ccc(NC(=O)Nc6ccccc6)cc5)ncnc4o3)cc2)CC1 [Compound 242] |  |  |  |
